Results as given in ChEMBL document CHEMBL1152924, “Synthetic staurosporines via a ring closing metathesis strategy as potent JAK3 inhibitors and modulators of allergic responses” (Bioorg Med Chem Lett, 2009).

How the values were obtained:
[1] = target: Tyrosine-protein kinase SYK (Homo sapiens, UniProt P43405); assay: Inhibition of SYK-mediated inhibition of biotinylated substrate phosphorylation
Jurkat [2] = assay: Antiproliferative activity against JAK3 expressing human resting Jurkat cells; assay type: functional, cell-based
Jurkat [3] = assay: Antiproliferative activity against JAK3 expressing IL2-stimulated human Jurkat cells; assay type: functional, cell-based
[4] = target: T1, Tyrosine-protein kinase JAK3 (Homo sapiens, UniProt P52333); assay: Inhibition of JAK3 expressed in insect Sf21 cells assessed as inhibition of biotinylated substrate phosphorylation
T1 sequence (P52333 whole entry): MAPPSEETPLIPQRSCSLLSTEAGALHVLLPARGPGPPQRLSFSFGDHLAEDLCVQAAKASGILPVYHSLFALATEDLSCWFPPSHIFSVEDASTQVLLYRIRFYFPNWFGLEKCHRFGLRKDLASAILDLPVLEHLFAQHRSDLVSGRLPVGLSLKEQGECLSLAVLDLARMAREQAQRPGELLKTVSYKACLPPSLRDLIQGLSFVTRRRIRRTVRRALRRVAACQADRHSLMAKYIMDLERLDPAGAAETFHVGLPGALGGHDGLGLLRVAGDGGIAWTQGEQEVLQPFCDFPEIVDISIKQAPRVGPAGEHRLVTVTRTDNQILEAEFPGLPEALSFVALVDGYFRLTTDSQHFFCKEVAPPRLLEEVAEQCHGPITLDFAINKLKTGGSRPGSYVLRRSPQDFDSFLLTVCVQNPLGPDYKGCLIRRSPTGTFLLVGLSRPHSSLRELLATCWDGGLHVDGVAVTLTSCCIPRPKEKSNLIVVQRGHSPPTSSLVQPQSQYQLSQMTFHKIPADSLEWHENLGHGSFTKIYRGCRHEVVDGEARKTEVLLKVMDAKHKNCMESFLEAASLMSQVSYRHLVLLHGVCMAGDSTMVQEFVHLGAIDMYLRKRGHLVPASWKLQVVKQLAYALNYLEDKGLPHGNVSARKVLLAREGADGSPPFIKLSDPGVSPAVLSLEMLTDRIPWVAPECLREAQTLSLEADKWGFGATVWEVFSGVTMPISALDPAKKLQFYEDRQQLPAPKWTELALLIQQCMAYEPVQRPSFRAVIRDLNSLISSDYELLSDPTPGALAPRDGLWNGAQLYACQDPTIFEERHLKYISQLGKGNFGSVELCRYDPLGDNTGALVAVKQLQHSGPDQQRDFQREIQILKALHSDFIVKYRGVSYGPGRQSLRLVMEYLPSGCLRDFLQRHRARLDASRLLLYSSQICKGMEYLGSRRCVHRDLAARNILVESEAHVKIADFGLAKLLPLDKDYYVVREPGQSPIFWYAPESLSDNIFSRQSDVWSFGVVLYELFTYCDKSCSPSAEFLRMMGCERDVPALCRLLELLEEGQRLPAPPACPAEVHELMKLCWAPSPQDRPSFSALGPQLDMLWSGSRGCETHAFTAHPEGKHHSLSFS

[5] = target: T2, Tyrosine-protein kinase ZAP-70 (Homo sapiens, UniProt P43403); assay: Inhibition of Zap70-mediated inhibition of biotinylated substrate phosphorylation
T2 sequence (P43403 whole entry): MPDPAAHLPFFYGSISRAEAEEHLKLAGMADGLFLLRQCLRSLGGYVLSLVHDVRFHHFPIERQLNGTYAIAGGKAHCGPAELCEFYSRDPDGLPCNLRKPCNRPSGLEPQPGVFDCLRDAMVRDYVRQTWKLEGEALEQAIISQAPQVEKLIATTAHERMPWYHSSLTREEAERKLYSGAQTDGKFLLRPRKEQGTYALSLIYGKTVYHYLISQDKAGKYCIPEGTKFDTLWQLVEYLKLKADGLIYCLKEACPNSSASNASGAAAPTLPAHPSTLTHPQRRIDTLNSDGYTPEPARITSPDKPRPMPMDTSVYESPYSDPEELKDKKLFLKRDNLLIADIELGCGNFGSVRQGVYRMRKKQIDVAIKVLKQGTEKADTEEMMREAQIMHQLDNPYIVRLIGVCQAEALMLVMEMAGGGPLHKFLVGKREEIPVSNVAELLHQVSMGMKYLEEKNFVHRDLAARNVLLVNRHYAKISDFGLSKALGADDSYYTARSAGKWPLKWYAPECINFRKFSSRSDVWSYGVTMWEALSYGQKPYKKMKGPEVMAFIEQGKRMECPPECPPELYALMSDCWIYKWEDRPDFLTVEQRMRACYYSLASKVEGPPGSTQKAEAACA

[6] = target: MAP kinase-activated protein kinase 2 (Homo sapiens, UniProt P49137); assay: Inhibition of MK2-mediated inhibition of biotinylated substrate phosphorylation
[7] = target: Tyrosine-protein kinase Lck (Homo sapiens, UniProt P06239); assay: Inhibition of LCK-mediated inhibition of biotinylated substrate phosphorylation
Mast cell [8] = assay: Inhibition of LPS-induced TNFalpha release in mast cells; assay type: functional, cell-based
T-cell = assay: Inhibition of IL2-induced PHA-stimulated healthy human T cells proliferation by [3H]thymidine assay; assay type: functional, cell-based
Mast cell [9] = assay: Inhibition of hexosaminidase release in IgE-stimulated mast cells; assay type: functional, cell-based
Mus musculus [10] = assay: Inhibition of ovalbumin-induced IgE production in mouse at 10 mg/kg, ip administered on day 1, 3 and 5 after 1 hr of ovalbumin challenge followed by additional dosing on day 2 and 4 measured on day 8 by ELISA; assay type: functional; set-up: scale not given: the % may be the effect or the level left; conditions: route intraperitoneal
Mus musculus [11] = assay: Inhibition of ovalbumin-induced IgE production in mouse at 30 mg/kg, ip administered on day 1, 3 and 5 after 1 hr of ovalbumin challenge followed by additional dosing on day 2 and 4 measured on day 8 by ELISA; assay type: functional; set-up: scale not given: the % may be the effect or the level left; conditions: route intraperitoneal
Mus musculus [12] = assay: Antiinflammatory activity against ovalbumin-induced asthma in BALB/c mouse model assessed as reduction of eosinophil count in broncheovular lavage fluid at 30 mg/kg, ip measured on day 32 after ovalbumin challenge; assay type: functional; set-up: scale not given: the % may be the effect or the level left; conditions: route intraperitoneal
Mus musculus [13] = assay: Antiinflammatory activity against ovalbumin-induced asthma in BALB/c mouse model assessed as reduction in methacoline-induced airway constriction at 30 mg/kg, ip measured on day 32 after ovalbumin challenge; assay type: functional; set-up: scale not given: the % may be the effect or the level left; conditions: route intraperitoneal
Mus musculus [14] = assay: Antiinflammatory activity against ovalbumin-induced asthma in BALB/c mouse model assessed as reduction of neutrophil count in broncheovular lavage fluid at 30 mg/kg, ip measured on day 32 after ovalbumin challenge; assay type: functional; set-up: scale not given: the % may be the effect or the level left; conditions: route intraperitoneal

MAP kinase-activated protein kinase 2, sequence (P49137 whole entry): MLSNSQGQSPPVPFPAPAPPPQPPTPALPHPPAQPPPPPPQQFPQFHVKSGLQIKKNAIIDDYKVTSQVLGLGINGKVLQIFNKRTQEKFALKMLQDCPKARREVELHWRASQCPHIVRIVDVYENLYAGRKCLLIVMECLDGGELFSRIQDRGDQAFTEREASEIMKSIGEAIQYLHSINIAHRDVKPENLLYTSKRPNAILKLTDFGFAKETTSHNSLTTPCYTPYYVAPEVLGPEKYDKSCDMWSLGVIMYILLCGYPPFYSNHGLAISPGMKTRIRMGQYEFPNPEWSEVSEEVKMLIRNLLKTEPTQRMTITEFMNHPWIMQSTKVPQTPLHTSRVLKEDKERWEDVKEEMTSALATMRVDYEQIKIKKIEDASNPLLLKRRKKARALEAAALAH
Tyrosine-protein kinase Lck, sequence (P06239 whole entry): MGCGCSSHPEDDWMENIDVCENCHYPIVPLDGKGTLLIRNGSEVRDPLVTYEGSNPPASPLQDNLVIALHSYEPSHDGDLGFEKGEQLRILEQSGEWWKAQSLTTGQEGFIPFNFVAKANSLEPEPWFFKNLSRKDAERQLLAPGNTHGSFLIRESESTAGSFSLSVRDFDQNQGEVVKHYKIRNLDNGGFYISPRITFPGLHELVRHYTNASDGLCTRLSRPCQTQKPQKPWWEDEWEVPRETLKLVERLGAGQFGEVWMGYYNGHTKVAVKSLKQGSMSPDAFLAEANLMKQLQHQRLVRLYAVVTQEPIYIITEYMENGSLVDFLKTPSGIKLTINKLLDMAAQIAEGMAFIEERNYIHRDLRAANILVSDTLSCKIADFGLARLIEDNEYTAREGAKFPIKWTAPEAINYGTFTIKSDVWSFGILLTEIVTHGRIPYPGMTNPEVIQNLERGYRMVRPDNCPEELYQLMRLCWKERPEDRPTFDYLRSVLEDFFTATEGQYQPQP

Row | SMILES | IC50 (Jurkat [2]) [nM] | IC50 (Jurkat [3]) [nM] | IC50 [4] [nM] | also measured
1 | CC(=O)/C1=C/Cn2c3ccccc3c3c4c(c5c6ccccc6n(c5c32)C1)C(=O)NC4=O | > 10000 | 575 | 7 | IC50 [1]: > 1000 nM; IC50 [5]: > 1000 nM; IC50 [6]: 540 nM; IC50 [7]: > 1000 nM
2 | CN(C)C1CCN(C(=O)[C@]2(O)Cn3c4ccccc4c4c5c(c6c7ccccc7n(c6c43)C[C@H]2O)C(=O)NC5=O)C1 (stereo not given in full) | 1600 | 57 | 15 | 
3 | O=C1NCc2c1c1c3ccccc3n3c1c1c2c2ccccc2n1C/C=C\C3 | > 10000 | 111 | 39 | 
4 | O=C1NCc2c1c1c3ccccc3n3c1c1c2c2ccccc2n1CC/C=C\CC3 | 10000 | 432 |  | 
5 | O=C1NC(=O)c2c1c1c3ccccc3n3c1c1c2c2ccccc2n1CC(O)CC3 (stereo not given) | 5670 | 160 |  | 
6 | O=C1NC(=O)c2c1c1c3ccccc3n3c1c1c2c2ccccc2n1C[C@H](O)[C@H](O)C3 | > 10000 | 48 | 3 | 
7 | C=CCn1c2ccccc2c2c3c(c4c5ccccc5n(CC=C)c4c21)C(=O)NC3 |  |  | > 200 | 
8 | O=C1NC(=O)c2c1c1c3ccccc3n3c1c1c2c2ccccc2n1CC(O)CCC3 (stereo not given) | > 10000 | 2860 |  | 
9 | O=C1NC(=O)c2c1c1c3ccccc3n3c1c1c2c2ccccc2n1C[C@@](O)(C(=O)O)[C@H](O)C3 (relative stereo) | > 10000 | 222 | 9 | 
10 | O=C1NC(=O)c2c1c1c3ccccc3n3c1c1c2c2ccccc2n1C[C@@H](O)[C@@H](O)CC3 (relative stereo) | > 10000 | 227 | 9 | 
11 | O=C1NCc2c1c1c3ccccc3n3c1c1c2c2ccccc2n1CC[C@@H](O)[C@@H](O)CC3 (relative stereo) | 616 | 45 | 12 | 
12 | O=C1NCc2c1c1c3ccccc3n3c1c1c2c2ccccc2n1C[C@@H](O)[C@@H](O)C3 (relative stereo) | 10000 | 98 | 6 | IC50 (Mast cell [8]): 18 nM; IC50 [1]: 300 nM; IC50 [5]: 200 nM; IC50 [6]: > 1000 nM; IC50 [7]: > 1000 nM; IC50 (T-cell): 100 nM; IC50 (Mast cell [9]): 55 nM; Activity (Mus musculus [10]): 15%; Activity (Mus musculus [11]): 70%; Activity (Mus musculus [12]): 54%; Activity (Mus musculus [13]): 90%; Activity (Mus musculus [14]): 54%
13 | COC(=O)[C@]1(O)Cn2c3ccccc3c3c4c(c5c6ccccc6n(c5c32)C[C@H]1O)C(=O)NC4=O (relative stereo) | > 10000 | 23 | 1 | IC50 [1]: > 1000 nM; IC50 [5]: > 1000 nM; IC50 [6]: > 1000 nM; IC50 [7]: 300 nM
14 | O=C1NCc2c1c1c3ccccc3[nH]c1c1[nH]c3ccccc3c21 [STAUROSPORINONE] |  |  | 61 | 
